According to patent US9605064B2, “Methods and compositions for treatment of skin disorders” (AbbVie Biotechnology Ltd, priority 2006, dated 2017):

Test system: patients with moderate to severe chronic plaque psoriasis
Assay: DLQI, Phase II 12-week placebo-controlled trial with 48-week extension
Assay type: in vivo, human
Settings: for Mean change in DLQI from baseline at Week 60: observed values; for DLQI = 0 / DLQI = 1 / DLQI = 2 / DLQI ≧ 3 / patients who achieved DLQI=0: pooled arms
Excerpt: The DLQI is a validated instrument used to measure disease impact on daily function.
The DLQI is a validated instrument used to assess dermatologic-related functional limitations, and was used as the patient related outcomes (PRO) measure. The DLQI consists of ten items and an overall scoring range of 0-30, where higher scores represent greater quality of life impairment and lower scores represent lower quality of life impairment. The DLQI also includes well-established properties of reliability and validity for the DLQI total score in a dermatology setting and measures six subcategories: symptoms and feelings, daily activities, leisure, work/school, personal relationships, and treatment.
Patients who discontinued before the time point were not included in this analysis. Ranges of DLQI scores were evaluated for their correspondence to categories of disease impact and are described below in Table 1.
PROs were assessed using the DLQI. The DLQI is a validated instrument used to assess dermatologic-related functional limitations.

[1] = PASI 75-99 responders who had DLQI>0 at Week 60
[2] = PASI improvement 50-74 (n = 18), Week 60
[3] = PASI improvement 75-99 (n = 54), Week 60
[4] = PASI improvement 100 (n = 29), Week 60
[5] = PASI improvement <50 (n = 5), Week 60
[6] = patients with PASI 75-99, Week 60
[7] = patients with PASI 100, Week 60

For “Adalimumab: a human anti-TNF mAb, described in U.S. Pat. No. 6,090,382 as D2E7 (HUMIRA, Abbott Laboratories)”, the “patients with change from large/extremely large DLQI impact at baseline to no/small impact” value (40 mg weekly, Week 12) was 86%, the “patients with change from large/extremely large DLQI impact at baseline to no/small impact” value (40 mg weekly, week 24) was 88% and the “patients with change from large/extremely large DLQI impact at baseline to no/small impact” value (40 mg weekly, week 36) was 91%. For the same substance, the “patients with change from large/extremely large DLQI impact at baseline to no/small impact” value (40 mg weekly, week 60) was 100%, the “Mean change in DLQI from baseline at Week 60” value (shortened to “Mean change … at Week 60”) (PASI 50-74) was −8.8 and the “Mean change … at Week 60” value (PASI 75-99) was −11.5. For the same substance, the “embarrassment/self-consciousness because of skin condition” value [1] was “approximately 20%”, the “persistent symptoms of itching, soreness, pain, or stinging of the skin” value [1] was “approximately 50%” and the “Mean change … at Week 60” value (PASI 100) was −11.1. For the same substance, the “Mean change … at Week 60” value (PASI <50) was −6.0, the “DLQI = 0” value [2] was 5 (28) n (%) and the “DLQI = 1” value [2] was 3 (17) n (%). For the same substance, the “DLQI = 2” value [2] was 3 (17) n (%), the “DLQI ≧ 3” value [2] was 7 (39) n (%) and the “DLQI = 0” value [3] was 20 (37) n (%). The “DLQI = 1” value [3] was 19 (35) n (%), the “DLQI = 2” value [3] was 4 (7) n (%) and the “DLQI ≧ 3” value [3] was 11 (20) n (%). The “DLQI = 0” value [4] was 23 (79) n (%), the “DLQI = 1” value [4] was 3 (10) n (%) and the “DLQI = 2” value [4] was 3 (10) n (%). The “DLQI ≧ 3” value [4] was 0 (0) n (%), the “DLQI = 0” value [5] was 0 (0) n (%) and the “DLQI = 1” value [5] was 1 (20.0) n (%). For the same substance, the “DLQI = 2” value [5] was 2 (40) n (%), the “DLQI ≧ 3” value [5] was 2 (40) n (%) and the “mean change in DLQI” value (adalimumab-treated patients) was no less than 10 points. The “DLQI mean change from baseline” value (baseline PASI ≧10 and DLQI >10, 40 mg eow, Week 12) was −15, the “DLQI mean change from baseline” value (baseline PASI ≧10 and DLQI >10, 40 mg eow, Week 24) was −14 and the “DLQI mean change from baseline” value (baseline PASI ≧10 and DLQI >10, 40 mg eow, Week 36) was −15. For the same substance, the “DLQI mean change from baseline” value (baseline PASI ≧10 and DLQI >10, 40 mg eow, Week 60) was −15, the “DLQI mean change from baseline” value (baseline PASI ≧10 and DLQI >10, 40 mg weekly, Week 12) was −16 and the “DLQI mean change from baseline” value (baseline PASI ≧10 and DLQI >10, 40 mg weekly, Week 24) was −17. For the same substance, the “DLQI mean change from baseline” value (baseline PASI ≧10 and DLQI >10, 40 mg weekly, Week 36) was −18, the “DLQI mean change from baseline” value (baseline PASI ≧10 and DLQI >10, 40 mg weekly, Week 60) was −17 and the “DLQI mean change from baseline” value (baseline PASI ≧10 and DLQI >10, placebo/adalimumab 40 mg eow, Week 24) was −12. The “DLQI mean change from baseline” value (baseline PASI ≧10 and DLQI >10, placebo/adalimumab 40 mg eow, Week 36) was −14, the “DLQI mean change from baseline” value (baseline PASI ≧10 and DLQI >10, placebo/adalimumab 40 mg eow, Week 60) was −12 and the “mean DLQI score” value (baseline PASI ≧10 and DLQI >10, weekly, Week 60) was 0.7. The “Mean improvement in DLQI” value (from dosage escalation to Week 60, 18 of the 30 patients who switched to weekly dosing) was 2.1, the “patients who achieved DLQI=0” value (of the total 106 patients receiving adalimumab at Week 60) was 48 patients and the “patients who achieved DLQI=0” value (patients receiving adalimumab at Week 60) was “approximately 45%”. For the same substance, the “patients who achieved a DLQI=0” value (patients with 50-74, Week 60) was 28%, the “mean change in DLQI from baseline” value (patients with PASI 50-74, Week 60) was −8 and the “mean change in DLQI from baseline” value [6] was −11.5. For the same substance, the “patients who achieved a DLQI=0” value [6] was 37%, the “mean change in DLQI from baseline” value [7] was −11.1 and the “patients who achieved a DLQI=0” value [7] was 79%. For the same substance, the “mean change in DLQI from baseline” value (patients with PASI<50, Week 60) was −6, the “patients with change from large/extremely large DLQI impact at baseline to no/small impact” value (placebo patients switched to adalimumab at week 12, week 24) was 67% and the “patients with change from large/extremely large DLQI impact at baseline to no/small impact” value (placebo patients switched to adalimumab at week 12, week 36) was 79%. For the same substance, the “patients with change from large/extremely large DLQI impact at baseline to no/small impact” value (placebo patients switched to adalimumab at week 12, week 60) was 71% and the “patients with change from large/extremely large DLQI impact at baseline to no/small impact” value (randomized to adalimumab, week 12) was 85%.
